# Columns and labels:
# [1] = molecular target: T1, EP4 receptor (Homo sapiens, UniProt P35408); test: cAMP accumulation assay in cells expressing EP4 (Biological Example 2, tetrazole derivatives); format: cell-based; details: cAMP luminescence, mean of triplicate
# Protocol: (§1) Commercial cAMP accumulation assays are typically competitive immunoassays in which free cAMP from cell lysates competes for antibody binding against a “labeled” cAMP molecule. This positive signal is generated in direct proportion to the amount of free cAMP. In our assays cAMP standards and samples are pipetted into the wells of a microplate. An antibody specific cAMP is added to the wells. A substrate is added to the wells and luminescence develops in proportion to the amount of cAMP which accumulated during treatment of cells which express the EP4 receptor with standards and samples. The intensity of the luminescence is measured in a luminometer.
# Results shown are the mean of triplicate determinations.
# [2] = molecular target: T1, EP4 receptor; test: cAMP accumulation assay in cells expressing EP4 (Biological Example 1, diol derivative); format: cell-based; details: for RLU - background: cAMP luminescence, mean of triplicate
# Protocol: as §1
# The response of the EP4 expressing cells treated with the diol derivative is compared to Nileprost. Results shown are the mean of triplicate determinations.
# T1 sequence (P35408 whole entry): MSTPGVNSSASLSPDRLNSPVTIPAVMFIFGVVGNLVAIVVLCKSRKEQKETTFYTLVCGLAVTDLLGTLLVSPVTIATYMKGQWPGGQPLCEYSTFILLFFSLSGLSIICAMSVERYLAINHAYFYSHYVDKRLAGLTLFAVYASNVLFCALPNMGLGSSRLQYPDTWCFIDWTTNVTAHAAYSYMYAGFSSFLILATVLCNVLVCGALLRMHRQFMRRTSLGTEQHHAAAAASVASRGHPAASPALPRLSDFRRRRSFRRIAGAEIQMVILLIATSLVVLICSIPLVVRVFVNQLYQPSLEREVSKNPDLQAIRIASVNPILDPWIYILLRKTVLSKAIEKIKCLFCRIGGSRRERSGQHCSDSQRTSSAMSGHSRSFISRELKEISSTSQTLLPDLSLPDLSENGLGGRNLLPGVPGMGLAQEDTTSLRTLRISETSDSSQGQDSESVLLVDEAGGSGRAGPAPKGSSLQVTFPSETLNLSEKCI
RLU - background ([2]; compound 0.010 nM) [RLU],RLU - background ([2]; compound 0.152 nM) [RLU],RLU - background ([2]; compound 0.457 nM) [RLU],RLU - background ([2]; compound 1.372 nM) [RLU],RLU - background ([2]; compound 4.115 nM) [RLU],RLU - background ([2]; compound 12.346 nM) [RLU],RLU - background ([2]; compound 37.037 nM) [RLU],RLU - background ([2]; compound 111.111 nM) [RLU],SMILES,RLU - background ([1]; compound 0.005 nM) [RLU],RLU - background ([1]; compound 0.052 nM) [RLU],RLU - background ([1]; compound 0.157 nM) [RLU],RLU - background ([1]; compound 0.472 nM) [RLU],RLU - background ([1]; compound 1.417 nM) [RLU],RLU - background ([1]; compound 4.252 nM) [RLU],RLU - background ([1]; compound 12.757 nM) [RLU],RLU - background ([1]; compound 38.272 nM) [RLU],RLU - background ([1]; compound 114.815 nM) [RLU],RLU - background ([1]; compound 344.444 nM) [RLU],RLU - background ([1]; compound 1033.333 nM) [RLU],RLU - background ([1]; compound 3100.000 nM) [RLU],further results
–,–,–,–,–,–,–,–,"CCCCC(C)[C@H](O)/C=C/[C@@H]1[C@H]2C/C(=C(\C#N)CCCc3nnn[nH]3)O[C@H]2C[C@H]1O (stereo partly drawn) [Cpd. #1, α-[(3aR,4R,5R,6aS)-hexahydro-5-hydroxy-4-[(1E,3S)-3-hydroxy-4-methyl-1-octenyl]-2H-cyclopenta[b]furan-2-ylidene]-1H-tetrazole-5-2E-pentanenitrile]",53600.00,17642.67,22533.33,27365.33,157357.33,373856.00,435810.67,484954.67,514858.67,606992.00,584826.67,559813.33,–
–,–,–,–,–,–,–,–,"CCCCC(C)[C@@H](O)/C=C/[C@@H]1[C@H]2C/C(=C(/C#N)CCCc3nnn[nH]3)O[C@H]2C[C@H]1O (stereo partly drawn) [Cpd. #3, α-[(3a R,4R,5R,6aS)-hexahydro-5-hydroxy-4-[(1E,3R)-3-hydroxy-4-methyl-1-octenyl]-2H-cyclopenta[b]furan-2-ylidene]-1H-tetrazole-5-2Z-pentanenitrile]",76373.33,79997.33,83616.00,118397.33,273778.67,374920.00,522154.67,697208.00,773429.33,813525.33,710053.33,714320.00,–
–,–,–,–,–,–,–,–,"CCCCC[C@H](O)/C=C/[C@@H]1[C@H]2CC(=C(C#N)CCCc3nnn[nH]3)O[C@H]2C[C@H]1O [Cpd. #4, α-[(3aR,4R,5R,6aS)-hexahydro-5-hydroxy-4-[(1E,3S)-3-hydroxy-1-octenyl]-2H-cyclopenta[b]furan-2-ylidene]-1H-tetrazole-5-pentanenitrile]",146597.33,83650.67,40557.33,46426.67,82445.33,158224.00,429672.00,554328.00,813194.67,909808.00,808477.33,820866.67,–
0,0,0,152432,532234,912060,1019082,1150386,"CCCCC(C)[C@H](O)/C=C/[C@@H]1[C@H]2C/C(=C(\C#N)CCCC(O)CO)O[C@H]2C[C@H]1O (stereo partly drawn) [Cpd. #5, 2-[(3aR,4R,5R,6aS)-hexahydro-5-hydroxy-4-[(1E,3S)-3-hydroxy-4-methyl-1-octenyl]-2H-cyclopenta[b]furan-2-ylidene]-6,7-dihydroxy-, (2E)-heptanenitrile]",–,–,–,–,–,–,–,–,–,–,–,–,RLU - background ([2]; compound 333.333 nM): 1291820 RLU; RLU - background ([2]; compound 1000.000 nM): 1260692 RLU; RLU - background ([2]; compound 3000.000 nM): 1201852 RLU; RLU - background ([2]; compound 9000.000 nM): 1206470 RLU; EP4 agonist activity in the cAMP accumulation assay ([2]; result in words): dose-responsively showed EP4 agonist activity
0,850786,1291900,1521826,1626762,1589698,1312998,1258626,"CCCCC(C)C(O)C=CC1C(O)CC2OC(=C(C#N)CCCC(=O)O)CC21 (stereo not shown) [Nileprost, 5-cyano-16-methylprostacyclin, reference compound]",–,–,–,–,–,–,–,–,–,–,–,–,RLU - background ([2]; compound 333.333 nM): 1648306 RLU; RLU - background ([2]; compound 1000.000 nM): 1635488 RLU; RLU - background ([2]; compound 3000.000 nM): 1625442 RLU; RLU - background ([2]; compound 9000.000 nM): 1599712 RLU
